Where “and” joins values, the source holds several entries; their conditions need not be identical. Equal values may be shown once.

Our source for the melting point values is the Bradley open melting point set (2014).

`O=C(Cl)c1cccc(C(=O)Cl)c1` [isophthaloyl dichloride] displayed a melting point of 44 °C.

Compound `C(=C/P(=O)(O)O)P(=O)(O)O` [1,2-ethylenediphosphonic acid] registered a melting point of 219 °C.

As for `CCCCOC(=O)c1ccccc1C(=O)OCCCC` [Dibutyl phthalate], the melting point was -35 °C.

`CCOC(C)=O` [Ethyl acetate] gave a melting point of -84 °C.

Take `O=[N+]([O-])c1ccc(Cl)cc1` [4-Chloronitrobenzene]: the melting point amounted to 83.5 °C.

Regarding `O=[N+]([O-])c1ccccc1I` [1-iodo-2-nitrobenzene], the melting point was 51 °C.

On to `CCCCC(C)CC` (stereo not drawn) [3-methylheptane], for which the melting point is -121 °C.

Turning to `O=[N+]([O-])c1ccccc1` [nitrobenzene], the melting point is 6 °C.

As to `Nc1ccc(N)c2c1C(=O)c1c(N)ccc(N)c1C2=O` [1,4,5,8-Tetraamino-9,10-anthraquinone], the melting point stood at 332 °C.

In turn, `CCCC(C)(COC(N)=O)COC(N)=O` [Sowell] yielded a melting point of 104 °C.

For `FC1(F)C2=CC=CC=C1C=CC=C2` [11,11-Difluoro-1,6-methano[10]annulene], the melting point was determined as 119 °C.

In turn, `CN1CC(Br)C(=O)NC1=O` (stereo not drawn) [5-bromo-1-methyldihydropyrimidine-2,4(1H,3H)-dione] yielded a melting point of 149 °C.

As for `O=C1[C@H]2C[C@@H]3C[C@@H](C[C@H]1C3)C2` [Adamantanone], the melting point amounted to 270 °C.

Regarding `COc1c(C)cc(B(O)O)cc1C` [4-methoxy-3,5-dimethylbenzeneboronic acid], the melting point was 237 °C.

`Oc1ccc(Cl)c2cccnc12` [5-chloro-8-hydroxyquinoline] came in with a melting point of 123 °C.

`CCCCCNCCCCC` [N-Pentylpentan-1-amine] returned a melting point of -44 °C.

The compound `Oc1ccc(Cl)c(O)c1` [4-chlororesorcinol] showed a melting point of 107 °C.

In turn, `N#CCc1ccc(B(O)O)cc1` [4-(cyanomethyl)benzeneboronic acid] came in with a melting point of 198 °C.

On to `C/C=C/C(=O)O` [trans-crotonic acid], for which the melting point was 72 °C.

As for `O=C=Nc1cccc2ccccc12` [1-naphthyl isocyanate], the melting point stood at 4 °C.

The compound `Nc1ccc(O)cc1` [p-aminophenol] came in with a melting point of 189 °C.

In the case of `Nc1ccc(C(=O)O)cc1` [4-aminobenzoic acid], the melting point was 188 °C.

`O=C(O)C(F)(F)F` [Trifluoroacetic acid] gave a melting point of -15 °C.

As to `CCCCc1ccc(NC(=O)c2ccc(OC)cc2)cc1` [benzamide, N-(4-butylphenyl)-4-methoxy-], the melting point amounted to 147 °C.

`O=C(OCCc1cc([N+](=O)[O-])c(CCOC(=O)c2ccccc2)cc1[N+](=O)[O-])c1ccccc1` [(2,5-dinitrobenzene-1,4-diyl)diethane-2,1-diyl dibenzoate] gave a melting point of 158 °C.

`COc1ccc(Cl)cc1I` [4-chloro-2-iodoanisole] showed a melting point of 46 °C.

Consider `O=S(=O)(Cl)Cc1ccc(F)cc1` [4-fluoro-alpha-toluenesulfonyl chloride], for which the melting point was determined as 60 °C.

Turning to `CC(=O)O[C@@H]1[C@@H](OC(C)=O)[C@H](C)O[C@H](C#N)[C@@H]1OC(C)=O`, the melting point came out at 130 °C.

Consider `O=C(O)CCc1nc(-c2ccccc2)c(-c2ccccc2)o1` [Oxaprozin], for which the melting point is 158 °C.

As to `O[C@H](c1ccccc1)[C@@H](O)c1ccccc1` [meso-hydrobenzoin], the melting point stood at 135 °C.

In turn, `C(=C\c1nn2c(COc3ccccc3)nnc2s1)/c1ccccc1` returned a melting point of 142 °C.

Compound `O=C(O)CCc1cccc(O)c1` [3-(3-hydroxyphenyl)propionic acid] registered a melting point of 112 °C.

The compound `CC(=O)Nc1ccc(C(C)C)cc1` [4'-isopropylacetanilide] registered a melting point of 104 °C.

In the case of `O=C(O)CCc1ccccc1` [3-phenylpropionic acid], the melting point is 48.5 °C.

Regarding `O=[N+]([O-])c1ccccc1O` [o-nitrophenol], the melting point turned out to be 45 °C.

`CC(=O)NCO` [N-(hydroxymethyl)acetamide] gave a melting point of 50 °C.

As to `Cc1cc(Cl)nc(Cl)c1C#N` [2,6-dichloro-3-cyano-4-methylpyridine], the melting point came out at 110 °C.

In turn, `CSc1nc(Cl)cc(N2CCCCC2)n1` [4-Chloro-2-(methylsulfanyl)-6-(piperidin-1-yl)pyrimidine] displayed a melting point of 83.8 °C.

In the case of `Cc1ccc(S(=O)(=O)Cl)cc1` [p-toluenesulfonyl chloride], the melting point came out at 69 °C.

The compound `O=[N+]([O-])c1ccc(-c2nnc3sc(/C=C/c4ccccc4)nn23)cc1` gave a melting point of 113 °C.

In the case of `CC(C)(N)CO` [2-Amino-2-methylpropan-1-ol], the melting point stood at 30 °C.

`FC(F)(F)c1cc(-n2cccc2)cc(C(F)(F)F)c1` [1-[3,5-bis(trifluoromethyl)phenyl]pyrrole] showed a melting point of 42 °C.

As to `Clc1ccccc1I` [o-chloroiodobenzene], the melting point amounted to 1 °C.

Turning to `COc1ccc(OC)c(C(C)=O)c1` [2',5'-dimethoxyacetophenone], the melting point worked out at 19 °C.

Consider `Cc1ccc(C(=O)CCC(=O)O)cc1` [3-(4-methylbenzoyl)propionic acid], for which the melting point worked out at 126 °C.

Consider `N#CCC(=O)NN` [cyanoacetic acid hydrazide], for which the melting point stood at 108 °C.

`OB(O)c1cccc(Cl)c1Cl` [2,3-dichlorobenzeneboronic acid] had a melting point of 238 °C.

Take `CCCCCCCCCCCC` [N-dodecane]: the melting point is -10 °C.

Regarding `CC(=O)OCC1=C(C(=O)O)N2C(=O)[C@@H](NC(=O)Cc3cccs3)[C@H]2SC1` [Cefalotin], the melting point was 160 °C.

Turning to `O=c1nc[nH]c2c1ncn2[C@H]1CC[C@@H](CO)O1` [Didanosine], the melting point was determined as 162 °C.

As to `COC(=O)c1cccc(C(=O)OC)c1` [dimethyl isophthalate], the melting point was 69 °C.

`CC1CCCC1` [methylcyclopentane]: the melting point is -142 °C.

As for `CCCCc1ccc(O)cc1` [4-n-butylphenol], the melting point turned out to be 22 °C.

As for `COc1cc(OC)cc(C(C)=O)c1` [3,5-dimethoxyacetophenone], the melting point was determined as 34 °C.

In turn, `NC(=O)c1ccc(N)cc1` [4-aminobenzamide] registered a melting point of 183 °C.

`CC(C)(C)OC(=O)NCC(=O)O` [boc-glycine] yielded a melting point of 88.5 °C.

As to `CCCC(C)O` (stereo not drawn) [Pentan-2-ol], the melting point is -50 °C.

Take `O=C(O)/C(=C/c1ccccc1[N+](=O)[O-])c1ccccc1` [(E)-2-phenyl-3-(2-nitrophenyl)propenoic acid]: the melting point was 198 °C.

In the case of `Nc1cc(C(=O)O)cc(C(F)(F)F)c1` [3-amino-5-(trifluoromethyl)benzoic acid], the melting point was determined as 144 °C.

For the compound `Cc1ccccc1CP(=O)(O)O` [2-methylbenzylphosphonic acid], the melting point stood at 186 °C.

In turn, `COC(=O)c1cccc(N)c1` [methyl 3-aminobenzoate] registered a melting point of 51 °C.

For the compound `CCCCCCCCCCCCCCCCCl` [1-chlorohexadecane], the melting point was found to be 9 °C.

On to `C=Cc1ccccc1` [styrene], for which the melting point was -31 °C.

For the compound `C#CC1(O)CCCCC1` [1-ethynylcyclohexanol], the melting point came out at 32 °C.

Regarding `COC(=O)c1ccc(C(C)=O)cc1` [methyl_4-acetylbenzoate], the melting point worked out at 95 °C.

In turn, `Nc1c(Br)cccc1Br` [2,6-dibromoaniline] had a melting point of 80 °C.

`C=Cc1ccc(C(C)=O)cc1` [p-acetylstyrene] gave a melting point of 37 °C.

The compound `O=C(NCCCCc1ccccc1)c1cc([N+](=O)[O-])cc([N+](=O)[O-])c1` [benzamide, 3,5-dinitro-N-(4-phenylbutyl)-] displayed a melting point of 166 °C.

For the compound `O=C(OC(=O)/C(=C/c1ccccc1)Cc1ccccc1)/C(=C/c1ccccc1)Cc1ccccc1` [(2E)-2-benzyl-3-phenylprop-2-enoic anhydride], the melting point is 108 °C.

Consider `Nc1ccc(S(=O)(=O)Nc2ncccn2)cc1` [sulfadiazine], for which the melting point was 252 °C and 256 °C and 254 °C.

`C[C@H](CCC(=O)O)[C@H]1CC[C@H]2[C@@H]3[C@H](O)C[C@@H]4C[C@H](O)CC[C@]4(C)[C@H]3C[C@H](O)[C@]12C` [cholic acid] came in with a melting point of 201 °C.

With `CCCCC(=O)N(Cc1ccc(-c2ccccc2-c2nnn[nH]2)cc1)C(C(=O)O)C(C)C` (stereo not drawn), the melting point was 116 °C.

In turn, `CCN1C(=O)C=CC1=O` [N-ethylmaleimide] returned a melting point of 45 °C.

As to `CC(=O)CCC(C)=O` [2,5-hexanedione], the melting point is -6 °C.

`CC(=O)c1ccc(C)c([N+](=O)[O-])c1` [4'-methyl-3'-nitroacetophenone] gave a melting point of 60 °C.

In turn, `Clc1ccc(Cl)nc1` [2,5-dichloropyridine] returned a melting point of 61 °C.

The compound `O=C1C=C(O)C(=O)c2ccccc21` [2-Hydroxy-1,4-naphthoquinone] showed a melting point of 192 °C.

Take `Nc1cccc([N+](=O)[O-])c1` [3-nitroaniline]: the melting point was 113 °C.

Regarding `CC(C)(C)c1ccc(O)c(C(C)(C)C)c1` [2,4-di-tert-butylphenol], the melting point was determined as 55 °C.

The compound `O=C(O)CC1CCCC1=O` (stereo not drawn) [2-oxocyclopentylacetic acid] registered a melting point of 49 °C.

Consider `Nc1cn[nH]c1` [4-amino-1h-pyrazole], for which the melting point was found to be 75 °C.

With `CCC(Br)CBr` (stereo not drawn) [1,2-dibromobutane], the melting point was -65 °C.

Compound `Cc1cc(Cl)c(C)cc1Cl` [2,5-Dichloro-p-xylene] yielded a melting point of 70 °C.

In turn, `C1CC[C@H]2CCCC[C@H]2C1` [cis-Decahydronaphthalene] gave a melting point of -43 °C.

On to `O=[N+]([O-])c1ccc(/C=C/c2ccc(O)cc2)cc1` [4-hydroxy-4'-nitrostilbene], for which the melting point stood at 207 °C.

The compound `O=C1CCC(=O)N1C1CCCCC1` [N-(cyclohexyl)succinimide] had a melting point of 165 °C.

As for `CCP(=O)(CC)CC` [triethylphosphine oxide], the melting point turned out to be 49 °C.

In the case of `C=C(C)CC` [2-methyl-1-butene], the melting point was -137 °C.

For orientation: melting point means the temperature, or range, at which the solid turns liquid.
